Among the test systems are MDA-MB-435; SF-268 CNS; M14 melanoma; DU-145 prostate; HOP-62 NSCLC; COLO 205 colon; HCT-15 colon; HCT-116 colon; SR leukemia; CCRF-CEM leukemia.
What all share (experiment): inhibition of tumour cell growth, NCI panel, 48 h

Several values for one entry are separate records, joined by “and”; a condition that tells them apart may be missing. Equal values may be shown once.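 Compound exposure: 48 hours, 5 concentrations, 96-well plates. GI50: concentration for 50% inhibition of growth. TGI denotes the concentration required for complete inhibition of growth.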 *1 amine or outer side, *2 acyl side, *3 side chain or, on linkers, in order; H or OH if unused. Where a SMILES comes first, the peptide text is derived from it. Bridges are numbered along the chain shown (N, C = ends). [ ]: non-standard residue; d: D form. ξ: configuration not given here. X4 = CCC(C)C(N[*:1])C(O)CC(=O)O[C@H](C(=O)C(C)C(=O)[*:2])C(C)C; NMeY = CN[C@@H](Cc1ccc(O)cc1)C(=O)O; ξNMeL = CNC(CC(C)C)C(=O)O; ξT = CC(O)C(N)C(=O)O

For the compound `CC1=CC[C@@H]2CC[C@]3(C)[C@H](CC[C@@H]4[C@@]5(C)CCCNC(C)(C)[C@@H]5CC[C@]43C)[C@H]2[C@@H]1C`, the GI50 is 1.85 µM in the assay on MDA-MB-435, 1.97 µM in the assay with SF-268 CNS, 1.73 µM in the assay on M14 melanoma and 1.98 µM in the assay on DU-145 prostate. In addition, the TGI with MDA-MB-435 came out at 3.28 µM; with SF-268 CNS, 3.71 µM; with M14 melanoma, 3.26 µM; in the assay with DU-145 prostate, 3.55 µM.
For the compound `C=C1C[C@]23C[C@@]1(O)CC[C@H]2[C@@]12C=C[C@H](O)[C@@](C)(C(=O)O1)[C@H]2[C@@H]3C(=O)O`, the TGI in the assay with SF-268 CNS, with M14 melanoma, with HOP-62 NSCLC, in the assay on COLO 205 colon, with HCT-15 colon and in the assay with HCT-116 colon was over 100 µM throughout. Moreover, the TGI in the assay on SR leukemia and with CCRF-CEM leukemia was over 100 µM in each case.
Consider `CC(C)n1c(=O)n(-c2ccccc2)n(C(C)(C)C)c1=O`, for which the TGI in the assay with M14 melanoma, with HOP-62 NSCLC, in the assay with COLO 205 colon, in the assay on HCT-15 colon, with HCT-116 colon and with SR leukemia was over 100 µM each time. This compound also registered a TGI in the assay on CCRF-CEM leukemia of over 100 µM.
Take `CC[N+](CC)=c1ccc2nc3c(cc(N)c4ccccc43)oc-2c1`: in the assay with M14 melanoma, the GI50 was 0.216 µM and the TGI stood at 0.61 µM. The GI50 in the assay on CCRF-CEM leukemia is 0.183 µM.
Turning to `COc1ccc(-c2c(C#N)c(-c3ccccc3)n(NS(=O)(=O)c3ccccc3)c(=O)c2C#N)cc1`, the TGI with MDA-MB-435, with SF-268 CNS, in the assay with M14 melanoma, with HOP-62 NSCLC, with COLO 205 colon and in the assay on HCT-15 colon was over 100 µM each time. Further, the TGI in the assay with HCT-116 colon and in the assay with CCRF-CEM leukemia was over 100 µM in each case.
In the case of `CCC(C)C1NC(=O)C(NC(=O)C(CC(C)C)N(C)C(=O)[C@@H]2CCCN2)C(C)OC(=O)[C@H](Cc2ccc(OC)cc2)N(C)C(=O)[C@@H]2CCCN2C(=O)[C@H](CC(C)C)NC(=O)C(C)C(=O)[C@H](C(C)C)OC(=O)CC1O` (some centres not stated) (H-P[ξNMeL][ξT][X4]LP[NMeY](Me); ester 3-C), the TGI in the assay on MDA-MB-435 is 0.0032 µM; in the assay with SF-268 CNS, 0.00314 µM and 0.0195 µM; in the assay on M14 melanoma it was 0.00865 µM; in the assay with HOP-62 NSCLC, 0.00782 µM; in the assay with HCT-15 colon, 0.224 µM and 0.146 µM; in the assay with SR leukemia, 7.45 µM. In the assay on CCRF-CEM leukemia, this compound came in with a TGI of 0.0557 µM.
As to `NC(=O)COc1ccccc1`, the TGI in the assay with SF-268 CNS, in the assay with M14 melanoma, in the assay on HOP-62 NSCLC, with COLO 205 colon, with HCT-15 colon and with HCT-116 colon was over 100 µM throughout. Also, the TGI in the assay on SR leukemia and in the assay on CCRF-CEM leukemia was over 100 µM each time.
`COc1c/c(=C2/C=c3ccccc3=N2)[nH]/c1=C/c1[nH]c(C)cc1C`: the GI50 is 0.0309 µM with SF-268 CNS; 0.0458 µM with HOP-62 NSCLC; 0.0659 µM in the assay with COLO 205 colon; 0.15 µM with DU-145 prostate; 0.0363 µM in the assay on HCT-15 colon; 0.0313 µM in the assay on CCRF-CEM leukemia. Moreover, the TGI is over 100 µM in the assay on SF-268 CNS; 0.459 µM in the assay with HOP-62 NSCLC; 1.26 µM in the assay with COLO 205 colon; over 100 µM in the assay on DU-145 prostate; over 100 µM in the assay on HCT-15 colon; over 100 µM in the assay on CCRF-CEM leukemia.
Take `O=[As](O)(O)c1cc(N=Nc2ccc(-c3ccc(N=Nc4cc([As](=O)(O)O)c(O)cc4O)cc3)cc2)c(O)cc1O`: the TGI in the assay on SF-268 CNS, in the assay on M14 melanoma, in the assay with HOP-62 NSCLC, with COLO 205 colon, with HCT-15 colon and in the assay with HCT-116 colon was over 100 µM in each case. Moreover, the TGI in the assay on SR leukemia is over 100 µM; in the assay with CCRF-CEM leukemia, over 80 µM.
As for `COS(=O)c1cc(Cl)cc(Cl)c1O` (configuration not stated), the TGI in the assay on SF-268 CNS, in the assay on M14 melanoma, in the assay on HOP-62 NSCLC, with HCT-116 colon, with SR leukemia and in the assay on CCRF-CEM leukemia was over 100 µM in each case.
For the compound `COc1cc(C2C3=C(COC3=O)OC(C)(C)Oc3cc4c(cc32)OCO4)cc(OC)c1OC` (configuration not stated), the TGI in the assay on MDA-MB-435 is 0.5 µM; in the assay on SF-268 CNS it was over 31.6 µM; in the assay on HOP-62 NSCLC, over 100 µM; in the assay on COLO 205 colon it was 0.552 µM; in the assay on HCT-116 colon, 6.65 µM.
As to `COc1ccc(NC2Oc3cc4c(cc3C(c3cc(OC)c(O)c(OC)c3)C2C)OCO4)cc1` (configuration not stated), the TGI in the assay on MDA-MB-435 is 2.51 µM; in the assay with SF-268 CNS, over 100 µM; in the assay with M14 melanoma it was over 100 µM; in the assay with COLO 205 colon, 39 µM; in the assay on DU-145 prostate, over 100 µM; with HCT-15 colon, 11.3 µM. The TGI in the assay on HCT-116 colon is 29.6 µM.

These data come from PubChem BioAssay (NCI).
